Counter-ions that a name gives are not always drawn.
Biological target: T1, DβH (Homo sapiens, UniProt P09172)
T1 construct: 125 μL of plasma (or saline for blank reaction or standard curve); tissue Instituto Português do Sangue Transplantação, Centro Sangue Transplantação, Porto, Portugal; host or cells: human plasma from healthy donors
T1 sequence (P09172 40-617 limits assumed): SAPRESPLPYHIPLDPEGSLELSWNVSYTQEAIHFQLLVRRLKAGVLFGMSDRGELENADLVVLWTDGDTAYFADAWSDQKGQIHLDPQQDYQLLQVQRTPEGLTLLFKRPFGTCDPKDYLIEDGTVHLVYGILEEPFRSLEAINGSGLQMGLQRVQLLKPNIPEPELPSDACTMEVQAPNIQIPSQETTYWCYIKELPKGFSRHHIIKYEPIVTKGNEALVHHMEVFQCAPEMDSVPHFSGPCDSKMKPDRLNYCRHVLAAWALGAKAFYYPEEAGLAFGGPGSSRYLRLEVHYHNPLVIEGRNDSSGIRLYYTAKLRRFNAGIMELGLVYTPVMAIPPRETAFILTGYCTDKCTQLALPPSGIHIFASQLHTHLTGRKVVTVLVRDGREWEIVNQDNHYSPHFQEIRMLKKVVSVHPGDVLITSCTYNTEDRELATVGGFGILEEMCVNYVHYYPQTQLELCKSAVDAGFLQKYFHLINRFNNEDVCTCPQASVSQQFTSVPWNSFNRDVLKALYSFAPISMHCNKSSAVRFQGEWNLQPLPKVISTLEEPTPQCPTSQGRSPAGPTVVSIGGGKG
Assay: Dopamine-β-hydroxylase inhibition assay in human plasma
Type: biochemical
Settings: for DβH (0.01 μM) / remaining activity at 0.01 µM: DβH activity in human plasma at 0.01 μM inhibitor; for DβH (0.1 μM) / remaining activity at 0.1 µM: DβH activity in human plasma at 0.1 μM inhibitor; for IC50: human plasma, curve fitting of 6 concentrations (100 nM to 0.3 nM)
Description: The ability of a compound to inhibit DβH activity may be assessed in human plasma using the following assay.
Dopamine beta hydroxylase activity in human plasma was measured by the method of Nagatsu and Udenfriend (Nagatsu, T. and Udenfriend, S. “Photometric assay of dopamine-p-hydroxylase activity in human blood.” Clin. Chem. 18(9) 980-983, 1972) with minor modifications. Catalase, N-ethylmaleimide, tyramine, disodium fumarate, pargyline, sodium acetate, ascorbic acid, copper sulfate and octopamine were obtained from Sigma Chemical Co., St. Louis, Mo. 63178. Human plasma samples were obtained from healthy donors (Instituto Português do Sangue Transplantação, Centro Sangue Transplantação, Porto, Portugal). From date of collection, plasma was stored at −80° C. until use. Test compounds were initially prepared in dimethyl sulfoxide at a concentration of 10 mM and diluted in dimethyl sulfoxide to the required concentrations. Test compounds were further diluted in ultrapure water to a concentration 20-fold to that of the final concentration to be tested. Final concentrations of test compounds were 10 and 100 nM. The various reagents used to make up the incubation buffer were premixed and consisted of the following components: sodium acetate buffer (1 M, pH 5.0, 18 mL), sodium fumarate (0.2 M, 4.5 mL), ascorbic acid (0.2 M, 4.5 ml, freshly prepared), pargyline (20 mM, freshly prepared, 4.5 mL), N-ethylmaleimide (0.2 M, 4.5 mL), catalase (10 000 U/mL, 9 mL), copper sulfate (20 μM, 4.5 mL) and 4.5 ultrapure water. The standard incubation mixture (total volume, 950 μL) contained: 50 μL of compound or vehicle (dimethyl sulfoxide 2%); 700 μL of incubation buffer; 125 μL of plasma (or saline for blank reaction or standard curve); 75 μL of saline. The reaction mixture was placed in water bath, shaking at 37° C. and pre-incubated for 10 minutes. Tyramine (0.5 M) was added and incubation proceeded for 45 minutes. The reaction contents were exposed to air. A sample of enzyme preparation (with 125 μL of plasma) that had been added perchloric acid 2 M at the end of the pre-incubation period was used as blank. A blank for each of the tested compounds was used. For octopamine standard curve, perchloric acid 2 M was replaced by increasing concentrations of octopamine prepared in perchloric acid 2 M (0.5, 1, 2.5, 5, 7.5, 10, 15, 20 μg/mL, final concentration). The incubation was stopped by adding 200 μL of 2 M molar perchloric acid, and the mixture was centrifuged at 9000 g for 5 min. The supernatant fluid (800 μL) was transferred to a column (SPE cartridge ISOLUTE SCX-3, 100 mg) and centrifuged at 150 g for 2 min. The column was washed two more times with 0.5 ml of ultrapure water by centrifuging at 150 g for 2 min. The adsorbed octopamine was eluted twice with 0.3 mL of 4 M ammonium hydroxide by centrifuging at 150 g for 2 min. Octopamine in the eluate was then converted to p-hydroxybenzaldehyde by adding 200 μL of sodium periodate (2%) and incubating for 6 min. Excess periodate was than reduced by adding 200 μL of sodium metabisulfite (10%). Absorbance was measured at […] in a 96-well plate by use of a SpectraMAX plus 384 (Molecular Devices) with software SOFTmax® PRO Software 5.3 spectrophotometer. Absorbance was linear with octopamine concentration from 0.5 to 20 μg/mL. Dopamine beta hydroxylase activity is determined as nmol of octopamine formed/mL of plasma/hour and effect of compounds is presented as % control. Results are reported in the table below as activity in % of control at the inhibitor concentration tested.
IC50 values of selected compounds were calculated based on curve fitting of results of 6 different compound concentrations (100 nM to 0.3 nM). IC50 data are reported in nM concentration.

DβH (0.01 μM) | DβH (0.1 μM) | IC50 | remaining activity at 0.01 µM | remaining activity at 0.1 µM | Compound
64.6 % of Control | 12.9 % of Control | 12.7 nM | – | – | Cl.Fc1ccc(F)c([C@H]2Cc3c(CCCN4CCOCC4)[nH]c(=S)n3C2)c1F [Example 1, (R)-1-(3-morpholinopropyl)-6-(2,3,6-trifluorophenyl)-2,5,6,7-tetrahydro-3H-pyrrolo[1,2-c]imidazole-3-thione hydrochloride]
– | – | – | 98.4% | 66.6% | NCCCc1[nH]c(=S)n2c1C[C@H](c1c(F)ccc(F)c1F)C2 [Example 2, (R)-1-(3-aminopropyl)-6-(2,3,6-trifluorophenyl)-2,5,6,7-tetrahydro-3H-pyrrolo[1,2-c]imidazole-3-thione]
– | – | 9.5 nM | 57.3% | 15.5% | Fc1ccc(F)c([C@H]2Cc3c(CCCNCC4CCOCC4)[nH]c(=S)n3C2)c1F [Example 3, (R)-1-(3-(((tetrahydro-2H-pyran-4-yl)methyl)amino)propyl)-6-(2,3,6-trifluorophenyl)-2,5,6,7-tetrahydro-3H-pyrrolo[1,2-c]imidazole-3-thione]
82.7 % of Control | 54.2 % of Control | – | – | – | Cl.NCCCc1[nH]c(=S)n2c1C[C@H](c1c(F)ccc(F)c1F)C2 [Example 4, (R)-1-(3-aminopropyl)-6-(2,3,6-trifluorophenyl)-2,5,6,7-tetrahydro-3H-pyrrolo[1,2-c]imidazole-3-thione hydrochloride]
– | – | 12.7 nM | 42.5% | 5.4% | Fc1ccc(F)c([C@H]2Cc3c(CCCNC4CCOCC4)[nH]c(=S)n3C2)c1F [Example 5, (R)-1-(3-((tetrahydro-2H-pyran-4-yl)amino)propyl)-6-(2,3,6-trifluorophenyl)-2,5,6,7-tetrahydro-3H-pyrrolo[1,2-c]imidazole-3-thione]
– | – | 11.6 nM | 63.6% | 10.4% | Fc1ccc(F)c([C@H]2Cc3c(CCCN4CCOCC4)[nH]c(=S)n3C2)c1F [Example 6, (R)-1-(3-morpholinopropyl)-6-(2,3,6-trifluorophenyl)-2,5,6,7-tetrahydro-3H-pyrrolo[1,2-c]imidazole-3-thione]
– | 3.0 % of Control | 8.3 nM | 42.5% | – | Cl.Fc1ccc(F)c([C@H]2Cc3c(CCCN4CC[C@@H](F)C4)[nH]c(=S)n3C2)c1F [Example 7, (R)-1-(3-((R)-3-fluoropyrrolidin-1-yl)propyl)-6-(2,3,6-trifluorophenyl)-2,5,6,7-tetrahydro-3H-pyrrolo[1,2-c]imidazole-3-thione hydrochloride]
113.4 % of Control | – | – | – | 52.8% | CN(C)CCCc1[nH]c(=S)n2c1C[C@H](c1c(F)ccc(F)c1F)C2 [Example 8, (R)-1-(3-(dimethylamino)propyl)-6-(2,3,6-trifluorophenyl)-2,5,6,7-tetrahydro-3H-pyrrolo[1,2-c]imidazole-3-thione]
– | – | 19.1 nM | 48.1% | 12.2% | Fc1ccc(F)c([C@H]2Cc3c(CCCN[C@H]4CCCOC4)[nH]c(=S)n3C2)c1F [Example 9, (R)-1-(3-(((S)-tetrahydro-2H-pyran-3-yl)amino)propyl)-6-(2,3,6-trifluorophenyl)-2,5,6,7-tetrahydro-3H-pyrrolo[1,2-c]imidazole-3-thione]
86.2 % of Control | 45.8 % of Control | – | – | – | CN(C)CCCc1[nH]c(=S)n2c1C[C@H](c1c(F)ccc(F)c1F)C2.Cl [Example 10, (R)-1-(3-(dimethylamino)propyl)-6-(2,3,6-trifluorophenyl)-2,5,6,7-tetrahydro-3H-pyrrolo[1,2-c]imidazole-3-thione hydrochloride]
40.6 % of Control | 7.7 % of Control | 7.2 nM | – | – | Fc1ccc(F)c([C@H]2Cc3c(CCCN4CC[C@@H](F)C4)[nH]c(=S)n3C2)c1F [Example 11, (R)-1-(3-((R)-3-fluoropyrrolidin-1-yl)propyl)-6-(2,3,6-trifluorophenyl)-2,5,6,7-tetrahydro-3H-pyrrolo[1,2-c]imidazole-3-thione]
– | – | 20.9 nM | 71.2% | 18.9% | CN(CCCc1[nH]c(=S)n2c1C[C@H](c1c(F)ccc(F)c1F)C2)C1CCOCC1 [Example 12, (R)-1-(3-(methyl(tetrahydro-2H-pyran-4-yl)amino)propyl)-6-(2,3,6-trifluorophenyl)-2,5,6,7-tetrahydro-3H-pyrrolo[1,2-c]imidazole-3-thione]
– | – | 22.2 nM | 69.9% | 29.3% | CN(CCCc1[nH]c(=S)n2c1C[C@H](c1c(F)ccc(F)c1F)C2)C1CCOC1 (stereo partly drawn) [Example 13, (6R)-1-(3-(methyl(tetrahydrofuran-3-yl)amino)propyl)-6-(2,3,6-trifluorophenyl)-2,5,6,7-tetrahydro-3H-pyrrolo[1,2-c]imidazole-3-thione hydrochloride]
73.2 % of Control | 19.0 % of Control | 33.1 nM | – | – | CN(CCCc1[nH]c(=S)n2c1C[C@H](c1c(F)ccc(F)c1F)C2)C1CCOCC1.Cl [Example 14, (R)-1-(3-(methyl(tetrahydro-2H-pyran-4-yl)amino)propyl)-6-(2,3,6-trifluorophenyl)-2,5,6,7-tetrahydro-3H-pyrrolo[1,2-c]imidazole-3-thione hydrochloride]
– | – | 2.7 nM | 13.6% | 1% | Fc1ccc(Cl)c(F)c1[C@]12C[C@H]1c1c(CCCN3CCOCC3)[nH]c(=S)n1C2 [Example 15, (5aS,6aR)-5a-(3-chloro-2,6-difluorophenyl)-1-(3-morpholinopropyl)-5,5a,6,6a-tetrahydrocyclopropa[3,4]pyrrolo[1,2-c]imidazole-3(2H)-thione hydrochloride]
– | – | 7.7 nM | 36.2% | 3.3% | Fc1ccc(Cl)cc1[C@]12C[C@H]1c1c(CCCN3CCOCC3)[nH]c(=S)n1C2 [Example 16, (5aS,6aR)-5a-(5-chloro-2-fluorophenyl)-1-(3-morpholinopropyl)-5,5a,6,6a-tetrahydrocyclopropa[3,4]pyrrolo[1,2-c]imidazole-3(2H)-thione]

Source: patent publication US20220267331A1, “DOPAMINE-B-HYDROXYLASE INHIBITORS” (BIAL - PORTELA & CA, S.A., priority 2019, published 2022)
